From patent publication US20090214445A1, “DELIVERY SYSTEMS FOR MANAGING RELEASE OF FUNCTIONAL INGREDIENTS IN AN EDIBLE COMPOSITION” (Cadbury Adams USA LLC, priority 2005, published 2009)

Experiment: Discoloration (degradation) of sucralose during encapsulation
Format: physicochemical
Conditions: with polyvinyl acetate, 2% polyvinylpyrollidone, 1% magnesium stearate; tablets pressed at 25° C., heated to 80° C.
Method: As one example of a hydrophilic coating, sucralose was mixed with powdered polyvinyl acetate and 5% fat and extruded at 110° C. […] In an alternative encapsulation, sucralose was mixed with powdered polyvinyl acetate, 2% polyvinylpyrollidone and 1% magnesium stearate and pressed into tablets at 25° C. The tablets were then heated to 80° C., which softened the polymer and fused the polyvinylacetate with the sucralose. […] Thereafter, the tablets were cooled, ground and sized and analyzed. […] As another example, a polymer/sweetener matrix was prepared as described above in this paragraph. A solution of gum arabic was made and coated on the polymer/sweetener matrix particles using the method described in U.S. Pat. No. 3,196,827, the relevant portions of which are incorporated herein by reference. Coating levels were 20, 30, 40, and 50% for different samples. Chewing gums prepared with the coated polymer/sweetener matrix particles were chewed by a panel with bolus collection at 5, 10, 15, 20 minutes. Residual sucralose was analyzed in each chewed bolus.

SMILES: OC[C@H]1O[C@H](O[C@]2(CCl)O[C@H](CCl)[C@@H](O)[C@@H]2O)[C@H](O)[C@@H](O)[C@H]1Cl [sucralose]
- discoloration of the sucralose: No discoloration
